Test results reported in publication PMC8433052 (iScience, 2021).
Read-outs that look alike come from different tables or passages of the source.

Assays:
[1] = target: Recombinant ZIKV NS5 protein (ZIKV RdRp) (Zika virus, UniProt A0A024B7W1); test: Primer extension polymerase activity assay; format: biochemical; conditions: RNA P/T, then ATP, GTP, CTP, UTP 100 μM each, 30°C 2 h; 3′-dATP 100 μM, HMTU-TP 0.025-1.6 mM
Description: To generate RNA primer-template complexes (RNA P/T), 0.5 μM fluorescently labeled RNA primer and 2 μM unlabeled RNA template were mixed in 50 mM NaCl, incubated at 95°C for 10 min, and then slowly cooled down to room temperature. The annealed RNA P/T was stored at -30°C before use in the primer extension assay.
The primer extension assay was performed according to a previous report ([Lu et al., 2017]). For analysis of the competitive inhibition ability of HMTU-TP, 200 nM of recombinant ZIKV NS5 (Sino Biological) and 50 nM RNA P/T were incubated 30°C for 15 min in reaction buffer [10 mM Tris-HCl (pH 7.5), 10 mM DTT, 5 mM MgCl2, 5% glycerol, 0.05% Triton-X 100, and 0.02 U/μL RNasein (Promega)], and then ATP analogs [500 μM ATP (Thermo Fischer Scientific), 100 μM 3’-dATP (TriLink), or serially diluted HMTU-TP (0.025, 0.1, 0.4 or 1.6 mM)] were added and incubated at 30°C for 10 min. Primer extension reactions were initiated by the addition of ATP, GTP, CTP and UTP (100 μM each). The reactions were performed 30°C for 2 h and stopped by the addition of quenching buffer (7M Urea, 1X TBE buffer, and 50 mM EDTA). The quenched samples were denatured at 95°C for 5 min, and the primer extension products were separated on a 15% denaturing polyacrylamide gel (Invitrogen). […] The band intensities were analyzed by ImageQuant TL version 8.2.0 (Cytiva).

DENV1 = test: CPE-based antiviral assay (resazurin), DENV1 in BHK-21; format: cell-based, Dengue virus 1; conditions: Dengue virus, DENV1, BHK-21, 120 h, read-out: EC50 against DENV1
DENV3 = test: CPE-based antiviral assay (resazurin), DENV3 in BHK-21; format: cell-based, Dengue virus 3; conditions: Dengue virus, DENV3, BHK-21, 120 h, read-out: EC50 against DENV3
ZIKV = test: CPE-based antiviral assay (MTT), ZIKV in BHK-21; format: cell-based; conditions: Zika virus, BHK-21, 72 h, read-out: EC50 against ZIKV
DENV4 = test: CPE-based antiviral assay (resazurin), DENV4 in BHK-21; format: cell-based, Dengue virus 4; conditions: Dengue virus, DENV4, BHK-21, 120 h, read-out: EC50 against DENV4
YFV = test: microbe, parasite or virus in culture; format: cell-based; conditions: Yellow fever virus, BHK-21, 72 h, read-out: EC50 against YFV
DENV2 [2] = test: CPE-based antiviral assay (resazurin), DENV2 in BHK-21; format: cell-based, Dengue virus 2; conditions: Dengue virus, DENV2, BHK-21, 96 h, read-out: EC50 against DENV2
JEV = test: CPE-based antiviral assay (MTT), JEV in BHK-21; format: cell-based; conditions: Japanese encephalitis virus, BHK-21, 72 h, read-out: EC50 against JEV
WNV = test: CPE-based antiviral assay (MTT), WNV in BHK-21; format: cell-based; conditions: West Nile virus, BHK-21, 72 h, read-out: EC50 against WNV
[3] = Cytotoxicity against MRC5 cells; format: cell-based, Human; conditions: human
Description: (§1) The MTT (3-[4,5-dimethyl-2-thiazolyl]-2,5-diphenyl-2H-tetrazolium bromide) and resazurin reduction assays were carried out as previously described ([Nobori et al., 2018]; [Sanaki et al., 2019]). These were performed to calculate cell viability following viral induced CPE or cytotoxicity. Assay conditions for flaviviruses are as described in Table 2.

MRC5 cells = test: Cytotoxicity against MRC5 cells; format: cell-based, Human; conditions: for CC50: rescreening (Table 3), read-out: CC50
Description: as §1

HCoV-229E = test: Resazurin reduction assay, HCoV-229E-infected MRC5 cells
HCoV-OC43 = test: Resazurin reduction assay, HCoV-OC43-infected MRC5 cells
SARS-CoV-2 = test: qRT-PCR analysis of SARS-CoV-2 in Caco-2 cells (rescreening, supernatant viral RNA); format: cell-based; conditions: qRT-PCR analysis using Caco-2 cells, MOI 0.1, 48 h
DENV2 [4] = test: MTT assay, DENV2-infected BHK-21 cells; format: cell-based, Dengue virus 2; conditions: Dengue virus
[5] = Cytotoxicity assay in BHK-21 cells; format: cell-based, Hamster; conditions: hamster
BHK-21 cells = test: Cytotoxicity assay in BHK-21 cells; format: cell-based, Hamster; conditions: concentrations up to 20 μM
dogs = test system: dogs; design: method as in Lim et al., 2015; Yin et al., 2009; conditions: dosed orally, preclinical, ref Lim et al., 2015, Yin et al., 2009; cited from earlier work
rats = test system: rats; design: method as in Lim et al., 2015; Yin et al., 2009; conditions: dosed orally, preclinical, ref Lim et al., 2015, Yin et al., 2009; cited from earlier work
[6] = rescreening (Table 3), read-out: CC50
[7] = Human coronavirus 229E, MRC5, read-out: HCoV-229E EC50
[8] = MRC5 cells, resazurin reduction assay
[9] = Betacoronavirus 1, OC43, MRC5, read-out: HCoV-OC43 EC50
[10] = Severe acute respiratory syndrome coronavirus 2
[11] = read-out: HCoV-229E EC50, MRC5 cells, resazurin reduction assay, rescreening of nine tubercidin derivatives
[12] = read-out: HCoV-OC43 EC50, MRC5 cells, resazurin reduction assay, rescreening of nine tubercidin derivatives

Recombinant ZIKV NS5 protein (ZIKV RdRp), sequence (A0A024B7W1 2521-3423): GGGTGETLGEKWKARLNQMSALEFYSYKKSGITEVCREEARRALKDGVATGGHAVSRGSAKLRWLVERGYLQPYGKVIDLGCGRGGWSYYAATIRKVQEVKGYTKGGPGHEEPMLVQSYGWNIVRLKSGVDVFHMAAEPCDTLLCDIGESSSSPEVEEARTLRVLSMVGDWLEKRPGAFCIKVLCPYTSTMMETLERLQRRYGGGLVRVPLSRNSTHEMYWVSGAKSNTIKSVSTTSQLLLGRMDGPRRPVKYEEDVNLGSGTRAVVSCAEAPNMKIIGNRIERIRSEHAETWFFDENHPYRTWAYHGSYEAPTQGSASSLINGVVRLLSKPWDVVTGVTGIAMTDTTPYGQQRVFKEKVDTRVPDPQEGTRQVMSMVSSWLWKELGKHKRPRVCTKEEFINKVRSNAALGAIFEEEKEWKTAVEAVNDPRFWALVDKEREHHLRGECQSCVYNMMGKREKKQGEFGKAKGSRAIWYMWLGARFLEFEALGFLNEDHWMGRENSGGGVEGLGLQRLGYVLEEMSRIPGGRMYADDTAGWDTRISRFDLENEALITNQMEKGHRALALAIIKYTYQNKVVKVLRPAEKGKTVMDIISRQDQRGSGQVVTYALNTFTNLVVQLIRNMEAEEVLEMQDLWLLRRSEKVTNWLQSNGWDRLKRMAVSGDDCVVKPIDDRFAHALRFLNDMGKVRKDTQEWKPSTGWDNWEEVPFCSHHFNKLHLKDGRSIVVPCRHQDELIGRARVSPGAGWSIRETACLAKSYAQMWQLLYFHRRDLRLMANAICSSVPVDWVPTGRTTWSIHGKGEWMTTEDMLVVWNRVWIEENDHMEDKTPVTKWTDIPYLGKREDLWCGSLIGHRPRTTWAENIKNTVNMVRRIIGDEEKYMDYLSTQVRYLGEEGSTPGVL

SMILES: Nc1ncnc2c1ncn2[C@@H]1O[C@H](COP(=O)(O)OP(=O)(O)OP(=O)(O)O)C[C@H]1O [3′-dATP, 3'-Deoxyadenosine-5'-Triphosphate, reference compound]
- effect on RNA extension by ZIKV RdRp [1]: prevented RNA extension

SMILES: NC(=O)c1nc(F)c[nH]c1=O [Favipiravir]
- EC50 (DENV1): 17 µM
- EC50 (DENV3): 13 µM
- EC50 (ZIKV): 40 µM
- EC50 (DENV4): 5.2 µM
- EC50 (YFV): 57 µM
- EC50 (DENV2 [2]): 4.4 µM
- EC50 (JEV): 80 µM
- EC50 (WNV): > 100 µM

SMILES: Nc1ncnc2c1c(CO)cn2C1OC(COP(=O)(O)OP(=O)(O)OP(=O)(O)O)C(O)C1O (centres unmarked) [HMTU-TP, HMTU 5′-triphosphate]
- effect on RNA extension by ZIKV RdRp [1]: incorporated into RNA template, resulting in chain termination

SMILES: Nc1ncnc2c1c(/C=N\O)cn2[C@@H]1O[C@H](CO)[C@@H](O)[C@H]1O [HUP1069, 5-formyltuberucidin oxime]
- CC50 [3, 6]: 0.74 µM
- cytotoxicity (in words) (MRC5 cells): high cytotoxicity
- EC50 (HCoV-229E; [7]): < 0.078 µM
- anti-HCoV-229E activity (in words) (HCoV-229E; [8]): strong antiviral activities
- EC50 (HCoV-OC43; [9]): 0.055 µM
- anti-HCoV-OC43 activity (in words) (HCoV-OC43; [8]): strong antiviral activities
- EC90 (SARS-CoV-2; [10]): 0.2 µM
- EC50 (DENV2 [4]): < 0.125 µM
- CC50 [5]: 0.18 µM
- cytotoxicity (in words) (BHK-21 cells): high cytotoxicity

SMILES: Nc1c2ccn([C@@H]3O[C@H](CO)[C@@H](O)[C@H]3O)c2nc[n+]1[O-] [HUP1077, 3-tubercidin N-oxide]
- CC50 [3, 6]: 24 µM
- EC50 (HCoV-229E; [7]): 4 µM
- anti-HCoV-229E activity (in words) (HCoV-229E; [8]): strong antiviral activities
- EC50 (HCoV-OC43; [9]): 4.3 µM
- anti-HCoV-OC43 activity (in words) (HCoV-OC43; [8]): strong antiviral activities
- EC90 (SARS-CoV-2; [10]): 3.5 µM
- EC50 (DENV2 [4]): 0.95 µM
- CC50 [5]: > 20 µM
- cytotoxicity (in words) (BHK-21 cells): did not exhibit cytotoxicity

SMILES: Nc1ncnc2c1c([N+](=O)[O-])cn2[C@@H]1O[C@H](CO)[C@@H](O)[C@H]1O [HUP1078]
- CC50 (MRC5 cells): 0.33 µM
- EC50 (HCoV-229E; [11]): 2 µM
- EC50 (HCoV-OC43; [12]): > 10 µM
- EC90 (SARS-CoV-2): 0.1 µM

SMILES: N#Cc1cn([C@@H]2O[C@H](CO)[C@@H](O)[C@H]2O)c2ncnc(N)c12 [HUP1109]
- CC50 (MRC5 cells): 0.59 µM
- EC50 (HCoV-229E; [11]): 2.3 µM
- EC50 (HCoV-OC43; [12]): > 10 µM
- EC90 (SARS-CoV-2): 0.2 µM

SMILES: Nc1ncnc2c1ccn2[C@@H]1O[C@H](CO)[C@@H](O)[C@H]1O [HUP1136, tubercidin]
- CC50 [3, 6]: 0.66 µM
- cytotoxicity (in words) (MRC5 cells): high cytotoxicity
- EC50 (HCoV-229E; [7]): < 0.078 µM
- anti-HCoV-229E activity (in words) (HCoV-229E; [8]): strong antiviral activities
- EC50 (HCoV-OC43; [9]): 0.11 µM
- anti-HCoV-OC43 activity (in words) (HCoV-OC43; [8]): strong antiviral activities
- EC90 (SARS-CoV-2; [10]): 0.087 µM
- EC50 (DENV2 [4]): < 0.125 µM
- CC50 [5]: 0.34 µM
- cytotoxicity (in words) (BHK-21 cells): high cytotoxicity

SMILES: C#C[C@@]1(O)[C@H](O)[C@@H](CO)O[C@H]1n1ccc2c(N)ncnc21 [NITD-008, 2′-C-ethynyltubercidin]
- toxicity (dogs): significant toxicity
- toxicity (rats): significant toxicity

SMILES: CCC(CC)COC(=O)[C@H](C)N[P@](=O)(OC[C@H]1O[C@@](C#N)(c2ccc3c(N)ncnn23)[C@H](O)[C@@H]1O)Oc1ccccc1 [Remdesivir, reference compound]
- CC50 ([3]; mean from three independent experiments (Table 4), read-out: CC50 MRC5, mean): > 50 µM
- EC50 (HCoV-229E; Human coronavirus 229E, MRC5, read-out: HCoV-229E EC50, mean): 0.071 µM
- EC50 (HCoV-OC43; Betacoronavirus 1, OC43, MRC5, read-out: HCoV-OC43 EC50, mean): 0.229 µM

SMILES: NC(=O)c1ncn([C@@H]2O[C@H](CO)[C@@H](O)[C@H]2O)n1 [Ribavirin]
- EC50 (DENV1): 62 µM
- EC50 (DENV3): 54 µM
- EC50 (ZIKV): 31 µM
- EC50 (DENV4): 86 µM
- EC50 (DENV2 [4]): 28 µM
- EC50 (YFV): 34 µM
- EC50 (DENV2 [2]): 19 µM
- EC50 (JEV): 33 µM
- EC50 (WNV): 52 µM
- CC50 [5]: > 400 µM
